From the NIST ThermoML archive (doi:10.1021/je060429r)
Several values for one entry are separate records, joined by “and”; a condition that tells them apart may be missing. Equal values may be shown once.

Details: Transpiration method

Oc1ccc(Cl)cc1 [4-chlorophenol]
Details	vapor or sublimation pressure [kPa]
283.2 K, Crystal	0.00132
288.2 K, Crystal	0.00236
291.2 K, Crystal	0.00332
294.2 K, Crystal	0.00459
297.2 K, Crystal	0.00622
300.2 K, Crystal	0.00839
303.2 K, Crystal	0.01163
306.2 K, Crystal	0.01571
309.2 K, Crystal	0.02076
311.2 K, Crystal	0.02535
313.2 K, Crystal	0.03092
318.2 K, Liquid	0.0485
321.2 K, Liquid	0.0615
324.2 K, Liquid	0.0754
327.2 K, Liquid	0.0926
330.2 K, Liquid	0.1141
333.2 K, Liquid	0.1388
336.2 K, Liquid	0.1699
339.2 K, Liquid	0.2022
342.2 K, Liquid	0.2534
345.2 K, Liquid	0.3058
348.2 K, Liquid	0.3684
351.2 K, Liquid	0.4409

Oc1c(Cl)c(Cl)c(Cl)c(Cl)c1Cl [pentachlorophenol]
Crystal
Details	vapor or sublimation pressure [kPa]
348.1 K	0.00127
353.1 K	0.00206
358 K	0.00304
363 K	0.00483
367.8 K	0.00681
371.9 K	0.00975
378.1 K	0.01517
383 K	0.02172
388.9 K	0.03268
393.2 K	0.04374
397.8 K	0.06045
399.8 K	0.07143
403.2 K	0.09099

Clc1c(Cl)c(Cl)c(Cl)c(Cl)c1Cl [hexachlorobenzene]
Crystal
Details	vapor or sublimation pressure [kPa]
358 K	0.00144
362.9 K	0.00216
368.9 K	0.00373
373.1 K	0.00519
377.8 K	0.00771
382.9 K	0.01123
389 K	0.01836
392.8 K	0.0238
397.9 K	0.03341
402.8 K	0.04901

Oc1cc(Cl)ccc1Cl [2,5-dichlorophenol]
Details	vapor or sublimation pressure [kPa]
294.3 K, Crystal	0.0089
297.3 K, Crystal	0.0122
300.4 K, Crystal	0.0168
303.3 K, Crystal	0.0223
306.3 K, Crystal	0.0302
309.2 K, Crystal	0.0399
312.2 K, Crystal	0.0532
315.2 K, Crystal	0.0708
318.3 K, Crystal	0.0944
321.3 K, Crystal	0.1257
324.4 K, Crystal	0.1636
327.4 K, Crystal	0.2133
333.3 K, Liquid	0.3198
337.2 K, Liquid	0.3996
340.2 K, Liquid	0.4726
343.2 K, Liquid	0.5513
346.2 K, Liquid	0.6514
349.2 K, Liquid	0.7643
352.2 K, Liquid	0.894
355.2 K, Liquid	1.048
358.1 K, Liquid	1.204
361.2 K, Liquid	1.403

Oc1cccc(Cl)c1 [3-chlorophenol]
Details	vapor or sublimation pressure [kPa]
275.3 K, Crystal	0.00082
276.6 K, Crystal	0.00095
278.3 K, Crystal	0.00115
280.3 K, Crystal	0.00149
283.2 K, Crystal	0.00212
285.2 K, Crystal	0.00262
288.3 K, Crystal	0.00366
291.3 K, Crystal	0.00509
294.3 K, Crystal	0.00721
297.3 K, Crystal	0.00999
300.3 K, Crystal	0.01323
302.2 K, Crystal	0.01626
306 K, Crystal	0.02395
308.3 K, Liquid	0.0294
311.1 K, Liquid	0.0361
314.2 K, Liquid	0.0455
317.2 K, Liquid	0.058
320.3 K, Liquid	0.073
323.2 K, Liquid	0.0905
326.2 K, Liquid	0.1116
329.2 K, Liquid	0.1366
332.2 K, Liquid	0.1669
335.2 K, Liquid	0.2002

Oc1c(Cl)cc(Cl)cc1Cl [2,4,6-trichlorophenol]
Details	vapor or sublimation pressure
299.4 K, Crystal	0.00177 kPa
302.3 K, Crystal	0.00245 kPa
305.2 K, Crystal	0.00319 kPa
308.3 K, Crystal	0.0044 kPa
311.3 K, Crystal	0.00593 kPa
314.3 K, Crystal	0.00805 kPa
316.8 K, Crystal	0.01044 kPa and 0.01061 kPa
317.3 K, Crystal	0.01125 kPa
320.3 K, Crystal	0.015 kPa
323.3 K, Crystal	0.02013 kPa
326.3 K, Crystal	0.02645 kPa
329.4 K, Crystal	0.03488 kPa
332.5 K, Crystal	0.04531 kPa
335.5 K, Crystal	0.05882 kPa
338.2 K, Crystal	0.07513 kPa
340.3 K, Crystal	0.08978 kPa
342.8 K, Liquid	0.1027 kPa
343.2 K, Liquid	0.1041 kPa
343.8 K, Liquid	0.1081 kPa
345.2 K, Liquid	0.1191 kPa
346.3 K, Liquid	0.1271 kPa
347.3 K, Liquid	0.1317 kPa
348.3 K, Liquid	0.1419 kPa
348.9 K, Liquid	0.1495 kPa
350.4 K, Liquid	0.1613 kPa
351.4 K, Liquid	0.1716 kPa
353.3 K, Liquid	0.1898 kPa
353.9 K, Liquid	0.1975 kPa
354.4 K, Liquid	0.2102 kPa
356.4 K, Liquid	0.2268 kPa
357.5 K, Liquid	0.2519 kPa
359 K, Liquid	0.2809 kPa
359.4 K, Liquid	0.2784 kPa
360.5 K, Liquid	0.2994 kPa
362.5 K, Liquid	0.3322 kPa
363.2 K, Liquid	0.3412 kPa
364.1 K, Liquid	0.3663 kPa
365.5 K, Liquid	0.3878 kPa
366.3 K, Liquid	0.4095 kPa
368.1 K, Liquid	0.4623 kPa
368.6 K, Liquid	0.463 kPa
369.4 K, Liquid	0.4939 kPa
372.4 K, Liquid	0.5714 kPa
373.2 K, Liquid	0.6103 kPa and 0.6087 kPa
375.4 K, Liquid	0.6794 kPa

Oc1c(Cl)cccc1Cl [2,6-dichlorophenol]
Details	vapor or sublimation pressure [kPa]
298.5 K, Crystal	0.0073
301.6 K, Crystal	0.01
304.6 K, Crystal	0.0137
307.4 K, Crystal	0.0183
310.4 K, Crystal	0.0245
313.4 K, Crystal	0.0331
316.4 K, Crystal	0.0437
319.4 K, Crystal	0.0591
322.4 K, Crystal	0.0774
325.4 K, Crystal	0.1006
328.4 K, Crystal	0.1312
331.3 K, Crystal	0.1685
341.2 K, Liquid	0.3444
344.7 K, Liquid	0.4173
347.3 K, Liquid	0.4838
350.3 K, Liquid	0.5727
353.3 K, Liquid	0.6745
356.3 K, Liquid	0.7745
360.3 K, Liquid	0.9734
363.3 K, Liquid	1.143
366.3 K, Liquid	1.315
371.4 K, Liquid	1.664

Oc1cccc(Cl)c1Cl [2,3-dichlorophenol]
Details	vapor or sublimation pressure [kPa]
294.3 K, Crystal	0.0078
297.3 K, Crystal	0.0107
300.2 K, Crystal	0.0149
303.2 K, Crystal	0.0192
306.2 K, Crystal	0.0267
309.2 K, Crystal	0.0351
312.2 K, Crystal	0.0482
315.2 K, Crystal	0.0633
318.1 K, Crystal	0.0798
321.2 K, Crystal	0.1081
324.3 K, Crystal	0.1429
327.3 K, Crystal	0.1835
331.2 K, Liquid	0.2449
334.3 K, Liquid	0.2946
337.2 K, Liquid	0.3508
340.3 K, Liquid	0.4132
343.2 K, Liquid	0.4874
346.2 K, Liquid	0.5745
349.2 K, Liquid	0.6662
352.1 K, Liquid	0.7881
355.2 K, Liquid	0.9247
358.2 K, Liquid	1.078

Oc1ccc(Cl)c(Cl)c1 [3,4-dichlorophenol]
Details	vapor or sublimation pressure [kPa]
291.4 K, Crystal	0.00027
294.3 K, Crystal	0.0004
300.3 K, Crystal	0.00086
303.5 K, Crystal	0.00121
306.7 K, Crystal	0.00177
309.5 K, Crystal	0.00247
314.3 K, Crystal	0.00423
317.2 K, Crystal	0.00587
320.4 K, Crystal	0.00806
323.3 K, Crystal	0.01069
326.3 K, Crystal	0.01474
329.3 K, Crystal	0.01992
332.3 K, Crystal	0.02618
335.3 K, Crystal	0.03423
337.3 K, Crystal	0.04096
341.3 K, Liquid	0.057
344.3 K, Liquid	0.0703
347.2 K, Liquid	0.0854
350.3 K, Liquid	0.1055
353.2 K, Liquid	0.127
356.3 K, Liquid	0.1544
359.2 K, Liquid	0.1858
362.2 K, Liquid	0.223
365.4 K, Liquid	0.2696
368.4 K, Liquid	0.3217

Oc1ccc(Cl)cc1Cl [2,4-dichlorophenol]
Details	vapor or sublimation pressure [kPa]
278.2 K, Crystal	0.00175
283.3 K, Crystal	0.00312
289.3 K, Crystal	0.00626
294.4 K, Crystal	0.01082
297.3 K, Crystal	0.01464
300.4 K, Crystal	0.02025
303.3 K, Crystal	0.02801
306.3 K, Crystal	0.03848
309.4 K, Crystal	0.05208
312.4 K, Crystal	0.06848
315.2 K, Crystal	0.09034
317.2 K, Liquid	0.1061
320.3 K, Liquid	0.1326
323.2 K, Liquid	0.1612
326.1 K, Liquid	0.1933
329.2 K, Liquid	0.2419
332.2 K, Liquid	0.2831
335.2 K, Liquid	0.3393
338.2 K, Liquid	0.4027
341.2 K, Liquid	0.4846
344.2 K, Liquid	0.5835

Oc1ccccc1Cl [2-chlorophenol]
Liquid
Details	vapor or sublimation pressure [kPa]
288.4 K	0.0863
291.3 K	0.1102
294.3 K	0.1378
297.3 K	0.1681
300.3 K	0.2059
303.3 K	0.2559
306.2 K	0.3083
309.2 K	0.3763
312.2 K	0.4633
315.2 K	0.5579
318.2 K	0.6649
321.2 K	0.7992
